Data published in patent publication US11160809B2, “NK1-antagonist combination and method for treating synucleinopathies” (priority 2017, dated 2021).
Where two headings read alike, the source gives them in different places.

Experiments:
[1] = for MTD-1 (Pramipexole alone): Period 1
Procedure: The starting dose of pramipexole was 0.5 mg and the dose was increased daily by 0.5 mg increments.
When a subject reached FID-1 on pramipexole alone, the subject was washed out for at least 5 days, and then entered Period 2 of the study during which the subject received single daily oral doses of pramipexole starting at 0.5 mg and titrated upward by 0.5 mg increments, together with oral aprepitant (80 mg) until subjects again reached an intolerable dose defined as above. The FID on oral pramipexole plus oral aprepitant was referred to as FID-2.
If a subject reached FID-2 during Period 2 at the same or lower dose than FID-1, and providing the investigator judged there were no safety issues and the subject was consenting, the subject received the same dose of pramipexole as the FID-2 dose together with a higher dose of oral aprepitant (120 mg) on the next day and the protocol specified that said subject should continue with the remainder of the dose titration with the higher dose of oral aprepitant (120 mg) until they reach the intolerable dose (FID2+). All other provisions of the protocol remained unchanged. Assessments were the same as those planned for the dose escalation day.
In addition, a laboratory panel was taken at screening and at the end of the study.

[2] = 5 mg/day of pramipexole, cited from earlier work
[3] = target: synuclein (Homo sapiens, UniProt P37840); settings: in vitro; cited from earlier work
[4] = system: dopaminergic neurons in a mouse PD model; settings: cited from earlier work
[5] = target: human wild-type alpha-synuclein (Homo sapiens, UniProt P37840); settings: in vitro; by H2O2 plus cytochrome c; cited from earlier work
[6] = target: alpha-synuclein in human neuroblastoma SH-SY5Y cells (Homo sapiens, UniProt P37840); settings: cited from earlier work
[7] = doses approved for motor symptoms of PD; 535 PD patients; cited from earlier work

## CCCN[C@H]1CCc2nc(N)sc2C1 [Pramipexole, (S)-6-propylamino-4,5,6,7-tetrahydro-1,3-benzothiazole-2-amine]
[1]; Subject 1001
  MTD-1 (Pramipexole alone): 2.0 mg
[1]; Subject 1006, NA, not tolerated at 0.5 mg
  MTD-1 (Pramipexole alone): NA (not tolerated
[1]; Subject 1007
  MTD-1 (Pramipexole alone): 4.0 mg
[1]; Subject 1008
  MTD-1 (Pramipexole alone): 1.0 mg
[1]; human, in vivo
  Reaching of FID-1: All subjects reached FID-1
[1]; in vivo
  Dose limiting toxicity: gastro-intestinal adverse events
[2]
  Nausea: 76 % of patients
  Vomiting: 39 % of patients
[2]; presumably because of intolerable GI adverse events
  Patients not able to complete the study: 36 % of patients
[3]
  Synuclein oligomer formation: diminishes synuclein oligomer formation
[4]; mouse PD model
  Toxic effects of rotenone on dopaminergic neurons: inhibits the toxic effects of rotenone
[4]; rotenone mouse PD model
  Immunoreactivity for alpha-synuclein: reducing immunoreactivity for alpha-synuclein
[5]
  Oligomerization of human wild-type alpha-synuclein: decreases the in vitro oligomerization
[6]
  Aggregation of alpha-synuclein: inhibit the aggregation of alpha-synuclein
[7]
  Neuroprotective (disease modifying) activity: failed to evidence neuroprotective (i.e., disease modifying) activity
